Consider 22 compounds from US10227323B2, “Glucosylceramide synthase inhibitors for the treatment of diseases” (BIOMARIN PHARMACEUTICAL INC., priority 2013, dated 2019).

As usually defined, the IC50 is the concentration needed to halve the response being measured.

In the assay the target is T1, GCS (Canis lupus familiaris, UniProt A0A8I3MXG6).
T1 sequence (A0A8I3MXG6 1-394): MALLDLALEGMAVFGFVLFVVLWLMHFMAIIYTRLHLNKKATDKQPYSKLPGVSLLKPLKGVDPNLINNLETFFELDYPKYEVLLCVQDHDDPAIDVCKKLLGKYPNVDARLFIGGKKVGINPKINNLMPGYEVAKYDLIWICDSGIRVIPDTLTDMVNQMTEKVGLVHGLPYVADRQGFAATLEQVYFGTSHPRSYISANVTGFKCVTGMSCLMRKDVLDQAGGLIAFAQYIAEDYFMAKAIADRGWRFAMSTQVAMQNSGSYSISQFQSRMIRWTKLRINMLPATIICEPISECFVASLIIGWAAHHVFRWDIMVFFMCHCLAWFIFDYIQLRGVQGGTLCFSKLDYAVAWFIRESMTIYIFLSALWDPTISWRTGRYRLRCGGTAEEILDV
The assay is described as follows: Assay 1: GCS Enzymatic Assay (MDCK cell lysate, C6-NBD-Ceramide, LC/MS). The format is biochemical, canine. The note with it: Table 2; for % inhibition generated from Assay 1: data marked by *; for IC50: data without asterisk, read-out: IC50 (nM) generated from Assay 1. The method, boiled down: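 LC/MS/MS measurement of glucosylceramide and NBD-ceramide after a 1 h, 37 °C reaction with 100 μM UDP-glucose and 10 μM C6-NBD-ceramide gave IC50s or percent inhibition.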

Structures are written as SMILES. A value given as a limit tells only on which side of the number the result lay.

Turning to `O=C(N[C@H](CN1CCCC1)[C@H](O)c1ccc(OCCN2CCC2)c(Cl)c1)C(F)(F)CCc1ccc2ccccc2c1` [Compound 131, N-((1R,2R)-1-(4-(2-(azetidin-1-yl)ethoxy)-3-chlorophenyl)-1-hydroxy-3-(pyrrolidin-1-yl)propan-2-yl)-2,2-difluoro-4-(naphthalen-2-yl)butanamide], the “% inhibition generated from Assay 1” value is on record as “A* (the compound had a % inhibition of a percent inhibition of greater than or equal to about 50%)”.

Regarding `O=C(N[C@H](CN1CCCC1)[C@H](O)c1ccc2c(c1)OCCO2)C(F)(F)c1ccc2cc(Cl)ccc2c1` [Compound 132, 2-(6-chloronaphthalen-2-yl)-N-((1R,2R)-1-(2,3-dihydrobenzo[b][1,4]dioxin-6-yl)-1-hydroxy-3-(pyrrolidin-1-yl)propan-2-yl)-2,2-difluoroacetamide], the half-inhibitory concentration (IC50) was less than 50 nM. For `O=C(N[C@H](CN1CCCC1)[C@H](O)c1cc(F)c2c(c1)OCCO2)C(=O)c1ccc(-c2ccc(F)cc2)cc1` [Compound 133, N-((1R,2R)-1-(8-fluoro-2,3-dihydrobenzo[b][1,4]dioxin-6-yl)-1-hydroxy-3-(pyrrolidin-1-yl)propan-2-yl)-2-(4′-fluoro-[1,1′-biphenyl]-4-yl)-2-oxoacetamide], the concentration for half-maximal inhibition (IC50) is less than 50 nM.

As to `O=C(N[C@H](CN1CCC1)[C@H](O)c1ccc(OC2CC2)c(Cl)c1)C(F)(F)CCc1ccc2cc(F)ccc2c1` [Compound 134, N-((1R,2R)-3-(azetidin-1-yl)-1-(3-chloro-4-cyclopropoxyphenyl)-1-hydroxypropan-2-yl)-2,2-difluoro-4-(6-fluoronaphthalen-2-yl)butanamide], the “% inhibition generated from Assay 1” value is “A* (the compound had a % inhibition of a percent inhibition of greater than or equal to about 50%)”. `O=C(N[C@H](CN1CCCC1)[C@H](O)c1cc(F)c2c(c1)OCCO2)C(F)(F)c1ccc2cc(Cl)ccc2c1` [Compound 135, 2-(6-chloronaphthalen-2-yl)-2,2-difluoro-N-((1R,2R)-1-(8-fluoro-2,3-dihydrobenzo[b][1,4]dioxin-6-yl)-1-hydroxy-3-(pyrrolidin-1-yl)propan-2-yl)acetamide]: the IC50 is less than 50 nM. In the case of `O=C(N[C@H](CN1CCCC1)[C@H](O)c1ccc(OC2CC2)c(Cl)c1)/C(=N/O)c1cc2cc(Cl)ccc2o1` [Compound 136, (E)-N-((1R,2R)-1-(3-chloro-4-cyclopropoxyphenyl)-1-hydroxy-3-(pyrrolidin-1-yl)propan-2-yl)-2-(5-chlorobenzofuran-2-yl)-2-(hydroxyimino)acetamide], the IC50 is less than 50 nM.

Take `O=C(N[C@H](CN1CCC1)[C@H](O)c1ccc(OC2CC2)c(Cl)c1)/C(CCc1ccc2cc(F)ccc2c1)=N/O` [Compound 137, (E)-N-((1R,2R)-3-(azetidin-1-yl)-1-(3-chloro-4-cyclopropoxyphenyl)-1-hydroxypropan-2-yl)-4-(6-fluoronaphthalen-2-yl)-2-(hydroxyimino)butanamide]: the “% inhibition generated from Assay 1” value is listed as “B* (the compound had a % inhibition of greater than or equal to about 3% but less than about 50%)”. For `O=C(N[C@H](CN1CCCC1)[C@H](O)c1cc(F)c2c(c1)OCCO2)/C(=N/O)c1ccc(-c2ccc(F)cc2)cc1` [Compound 138, (E)-N-((1R,2R)-1-(8-fluoro-2,3-dihydrobenzo[b][1,4]dioxin-6-yl)-1-hydroxy-3-(pyrrolidin-1-yl)propan-2-yl)-2-(4′-fluoro-[1,1′-biphenyl]-4-yl)-2-(hydroxyimino)acetamide], the IC50 is less than 50 nM.

For the compound `O=C(N[C@H](CN1CCCC1)[C@H](O)c1ccc(OC2CC2)c(Cl)c1)C(F)(F)c1ccc2cc(Cl)ccc2c1` [Compound 139, N-((1R,2R)-1-(3-chloro-4-cyclopropoxyphenyl)-1-hydroxy-3-(pyrrolidin-1-yl)propan-2-yl)-2-(6-chloronaphthalen-2-yl)-2,2-difluoroacetamide], the “% inhibition generated from Assay 1” value was “A* (the compound had a % inhibition of a percent inhibition of greater than or equal to about 50%)”. Turning to `O=C(N[C@H](CN1CCCC1)[C@H](O)c1cc(F)c2c(c1)OCCO2)C(F)(F)c1ccc(-c2ccc(F)cc2)cc1` [Compound 140, 2,2-difluoro-N-((1R,2R)-1-(8-fluoro-2,3-dihydrobenzo[b][1,4]dioxin-6-yl)-1-hydroxy-3-(pyrrolidin-1-yl)propan-2-yl)-2-(4′-fluoro-[1,1′-biphenyl]-4-yl)acetamide], the IC50 was less than 50 nM. On to `O=C(N[C@H](CN1CCC1)[C@H](O)c1cc(F)c2c(c1)OCCO2)/C(CCc1ccc2ccccc2c1)=N/O` [Compound 141, (E)-N-((1R,2R)-3-(azetidin-1-yl)-1-(8-fluoro-2,3-dihydrobenzo[b][1,4]dioxin-6-yl)-1-hydroxypropan-2-yl)-2-(hydroxyimino)-4-(naphthalen-2-yl)butanamide], for which the IC50 is less than 50 nM. For `O=C(N[C@H](CN1CCCC1)[C@H](O)c1ccc(OC2CC2)c(Cl)c1)/C(CCc1ccc2ccccc2c1)=N/O` [Compound 142, (E)-N-((1R,2R)-1-(3-chloro-4-cyclopropoxyphenyl)-1-hydroxy-3-(pyrrolidin-1-yl)propan-2-yl)-2-(hydroxyimino)-4-(naphthalen-2-yl)butanamide], the IC50 was less than 50 nM. Take `O=C(CCc1ccc2ccccc2c1)C(=O)N[C@H](CN1CCCC1)[C@H](O)c1cc(F)c2c(c1)OCCO2` [Compound 143, N-((1R,2R)-1-(8-fluoro-2,3-dihydrobenzo[b][1,4]dioxin-6-yl)-1-hydroxy-3-(pyrrolidin-1-yl)propan-2-yl)-4-(naphthalen-2-yl)-2-oxobutanamide]: the IC50 is less than 50 nM.

With `O=C(N[C@H](CN1CCC1)[C@H](O)c1ccc2c(c1)OCCO2)C(F)(F)CCc1ccc2ccccc2c1` [Compound 144, N-((1R,2R)-3-(azetidin-1-yl)-1-(2,3-dihydrobenzo[b][1,4]dioxin-6-yl)-1-hydroxypropan-2-yl)-2,2-difluoro-4-(naphthalen-2-yl)butanamide], the IC50 is less than 50 nM. Take `O=C(CCc1ccc2ccccc2c1)C(=O)N[C@H](CN1CCC1)[C@H](O)c1cc(F)c2c(c1)OCCO2` [Compound 145, N-((1R,2R)-3-(azetidin-1-yl)-1-(8-fluoro-2,3-dihydrobenzo[b][1,4]dioxin-6-yl)-1-hydroxypropan-2-yl)-4-(naphthalen-2-yl)-2-oxobutanamide]: the “% inhibition generated from Assay 1” value is given as “A* (the compound had a % inhibition of a percent inhibition of greater than or equal to about 50%)”.

With `O=C(N[C@H](CN1CCCC1)[C@H](O)c1ccc(OC2CCOCC2)c(Cl)c1)C(F)(F)c1ccc2cc(Cl)ccc2c1` [Compound 146, N-((1R,2R)-1-(3-chloro-4-((tetrahydro-2H-pyran-4-yl)oxy)phenyl)-1-hydroxy-3-(pyrrolidin-1-yl)propan-2-yl)-2-(6-chloronaphthalen-2-yl)-2,2-difluoroacetamide], the IC50 is less than 50 nM. Regarding `O=C(CCc1ccc2ccccc2c1)C(=O)N[C@H](CN1CCCC1)[C@H](O)c1ccc(OC2CC2)c(Cl)c1` [Compound 147, N-((1R,2R)-1-(3-chloro-4-cyclopropoxyphenyl)-1-hydroxy-3-(pyrrolidin-1-yl)propan-2-yl)-4-(naphthalen-2-yl)-2-oxobutanamide], the “% inhibition generated from Assay 1” value is reported as “A* (the compound had a % inhibition of a percent inhibition of greater than or equal to about 50%)”. As to `O=C(N[C@H](CN1CCCC1)[C@H](O)c1cc(F)c2c(c1)OCCO2)/C(CCc1ccc2ccccc2c1)=N/O` [Compound 148, (E)-N-((1R,2R)-1-(8-fluoro-2,3-dihydrobenzo[b][1,4]dioxin-6-yl)-1-hydroxy-3-(pyrrolidin-1-yl)propan-2-yl)-2-(hydroxyimino)-4-(naphthalen-2-yl)butanamide], the IC50 was less than 50 nM. `O=C(N[C@H](CN1CCCC1)[C@H](O)c1ccc(OC2CC2)c(Cl)c1)C(=O)c1ccc(-c2ccc(F)cc2)cc1` [Compound 149, N-((1R,2R)-1-(3-chloro-4-cyclopropoxyphenyl)-1-hydroxy-3-(pyrrolidin-1-yl)propan-2-yl)-2-(4′-fluoro-[1,1′-biphenyl]-4-yl)-2-oxoacetamide]: the IC50 is less than 50 nM. With `O=C(N[C@H](CN1CCC1)[C@H](O)c1cc(F)c2c(c1)OCCO2)C(=O)c1ccc(-c2ccc(F)cc2)cc1` [Compound 150, N-((1R,2R)-3-(azetidin-1-yl)-1-(8-fluoro-2,3-dihydrobenzo[b][1,4]dioxin-6-yl)-1-hydroxypropan-2-yl)-2-(4′-fluoro-[1,1′-biphenyl]-4-yl)-2-oxoacetamide], the IC50 was less than 50 nM. Consider `O=C(N[C@H](CN1CCCC1)[C@H](O)c1cc(F)c2c(c1)OCCO2)C(=O)c1ccc2cc(Cl)ccc2c1` [Compound 151, 2-(6-chloronaphthalen-2-yl)-N-((1R,2R)-1-(8-fluoro-2,3-dihydrobenzo[b][1,4]dioxin-6-yl)-1-hydroxy-3-(pyrrolidin-1-yl)propan-2-yl)-2-oxoacetamide], for which the IC50 was less than 50 nM.

As to `O=C(N[C@H](CN1CCCC1)[C@H](O)c1ccc(OC2CCOCC2)c(Cl)c1)C(=O)c1ccc(-c2ccc(F)cc2)cc1` [Compound 152, N-((1R,2R)-1-(3-chloro-4-((tetrahydro-2H-pyran-4-yl)oxy)phenyl)-1-hydroxy-3-(pyrrolidin-1-yl)propan-2-yl)-2-(4′-fluoro-[1,1′-biphenyl]-4-yl)-2-oxoacetamide], the IC50 was less than 50 nM.
